pIC50: −log10 of the molar value.
How the values were obtained:
Mus musculus [1] = experiment: Inhibition of anti CD3-induced IL2 production in mice serum at 50 mg/kg, sc; format: functional; conditions: route subcutaneous
Mus musculus [2] = experiment: Inhibition of anti CD3-induced IL2 production in mice serum at 50 mg/kg, sc after 1.75 hrs; format: functional; conditions: route subcutaneous
[3] = target: Tyrosine-protein kinase SYK (Homo sapiens, UniProt P43405); experiment: Inhibition of Syk
[4] = Tmax in mice at 20 mg/kg, po; format: ADME, organism-based; set-up: dose 20 mg/kg, route oral; conditions: mouse, in vivo
[5] = Oral bioavailability in mice at 20 mg/kg, po; format: ADME, organism-based; conditions: mouse, in vivo
[6] = Half life in mice at 10 mg/kg, iv; format: ADME, organism-based; set-up: dose 10 mg/kg, route intravenous; conditions: mouse, in vivo
[7] = Clearance in mice at 10 mg/kg, iv; format: ADME, organism-based; set-up: dose 10 mg/kg, route intravenous; conditions: mouse, in vivo
[8] = Mean residence time in mice at 10 mg/kg, iv; format: ADME, organism-based; set-up: dose 10 mg/kg, route intravenous; conditions: mouse, in vivo
[9] = Tmax in mice at 10 mg/kg, iv; format: ADME, organism-based; set-up: dose 10 mg/kg, route intravenous; conditions: mouse, in vivo
[10] = Volume of distribution in mice at 10 mg/kg, iv; format: ADME, organism-based; set-up: dose 10 mg/kg, route intravenous; conditions: mouse, in vivo, read-out: Vss
[11] = Half life in mice at 20 mg/kg, po; format: ADME, organism-based; set-up: dose 20 mg/kg, route oral; conditions: mouse, in vivo
[12] = Cmax in mice at 20 mg/kg, po; format: ADME, organism-based; set-up: dose 20 mg/kg, route oral; conditions: mouse, in vivo
[13] = Mean residence time in mice at 20 mg/kg, po; format: ADME, organism-based; set-up: dose 20 mg/kg, route oral; conditions: mouse, in vivo
EL4 = experiment: cells; conditions: Mus musculus
Jurkat = experiment: Inhibition of IL2 production in Jurkat T cells; format: functional, cell-based; conditions: Homo sapiens
Mus musculus [14] = species on record: Mus musculus; experiment: Stability in mouse liver microsomes assessed as degradation rate per mg of protein; format: ADME
[15] = target: T1, Tyrosine-protein kinase ITK/TSK (Homo sapiens, UniProt Q08881); experiment: Inhibition of Itk
T1 sequence (Q08881 whole entry): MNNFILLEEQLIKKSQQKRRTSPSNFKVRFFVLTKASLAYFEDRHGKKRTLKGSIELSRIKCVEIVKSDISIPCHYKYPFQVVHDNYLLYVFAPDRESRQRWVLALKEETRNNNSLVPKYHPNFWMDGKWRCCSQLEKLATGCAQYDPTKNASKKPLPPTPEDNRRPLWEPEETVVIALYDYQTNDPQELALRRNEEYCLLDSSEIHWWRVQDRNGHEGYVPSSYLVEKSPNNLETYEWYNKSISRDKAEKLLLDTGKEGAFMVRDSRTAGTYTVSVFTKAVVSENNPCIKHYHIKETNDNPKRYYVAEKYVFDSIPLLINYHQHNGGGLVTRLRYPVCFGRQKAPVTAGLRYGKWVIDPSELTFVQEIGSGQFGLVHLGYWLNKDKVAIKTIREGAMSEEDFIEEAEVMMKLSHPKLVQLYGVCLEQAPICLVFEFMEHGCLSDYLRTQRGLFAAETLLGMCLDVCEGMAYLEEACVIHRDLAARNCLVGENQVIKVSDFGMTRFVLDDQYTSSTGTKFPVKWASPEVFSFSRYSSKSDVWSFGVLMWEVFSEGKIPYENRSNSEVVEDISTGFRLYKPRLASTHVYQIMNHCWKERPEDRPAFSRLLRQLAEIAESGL

SMILES	pIC50 (Jurkat)	Stability (Mus musculus [14]; mouse)	other results
COc1cc(C)c(Sc2cnc(NC(=O)c3ccc(CNC(C)C(C)(C)C)cc3)s2)cc1C(=O)N1CCN(C(C)=O)CC1 (stereo not drawn)			inhibition in vivo at 50 mg/kg (Mus musculus [1]): 50%; Activity (Mus musculus [2]): 1.89 µM; pIC50 [3]: < 4.30; Tmax [4]: 1 h; bioavailability [5]: 6.4%; half-life [6]: 78 min; clearance [7]: 116 mL/min/kg; MRT [8]: 1 h; Tmax [9]: 3 min; Vd [10]: 7 L/kg; half-life [11]: 84 min; Cmax [12]: 69 nM; MRT [13]: 3.1 h; pIC50 (Protein kinase C (PKC)): 4.62; pIC50 (EL4): 7.15
COc1cc(C)c(Sc2cnc(NC(=O)c3ccc(OC(C)C)cc3)s2)cc1C(=O)N1CCN(C(C)=O)CC1	6.44		
CC(=O)N1CCN(C(=O)c2cccc(Sc3cnc(Nc4ccccn4)s3)c2)CC1	4.62		
O=C(O)C1CCN(C(=O)c2cc(Sc3cnc(Nc4cccc(Br)n4)s3)ccc2O)CC1	< 4.30	< 0.1 nmol/min/mg	
CNCc1ccc(C(=O)Nc2ncc(Sc3cc(C(=O)N4CCOCC4)c(OC)cc3C)s2)[nH]1	6.59	0.1 nmol/min/mg	
CC(=O)N1CCN(C(=O)c2cccc(Sc3cnc(Nc4cccnc4)s3)c2)CC1			pIC50 [15]: < 4.30
CC(=O)N1CCN(C(=O)c2cccc(Sc3cnc(NC(=O)c4ccc(N(C)C)cc4)s3)c2C)CC1			pIC50 [15]: < 4.60
COc1cc(C)c(Sc2cnc(NC(=O)c3ccc[nH]3)s2)cc1C(=O)N1CCN(C(C)=O)CC1	6.60		
CC(=O)N1CCN(C(=O)c2cc(Sc3cnc(Nc4cccc(Br)n4)s3)ccc2O)CC1	6.43	> 0.3 nmol/min/mg	
CCN1CCN(C(=O)c2cc(Sc3cnc(NC(=O)C4CC4)s3)c(C)cc2OC)CC1	6.00	> 0.3 nmol/min/mg	
CCNCc1ccc(C(=O)Nc2ncc(Sc3cc(C(=O)N4CCN(C(C)=O)CC4)c(OC)cc3C)s2)cc1	5.47		
CS(=O)(=O)NC(=O)C1CCCN(C(=O)c2cc(Sc3cnc(Nc4cccc(Br)n4)s3)ccc2O)C1 (stereo not drawn)	< 5.00		Stability (Mus musculus [14]): < 0.1 nmol/min
COc1cc(C)c(Sc2cnc(NC(=O)C3CC3)s2)cc1C(=O)N1CCN(C(=O)CN(C)C)CC1	6.68	0.1 nmol/min/mg	

More lines, main results first:

pIC50 (Jurkat)	Stability (Mus musculus [14]; mouse)	SMILES	other results
4.60	< 0.1 nmol/min/mg	COc1cc(C)c(Sc2cnc(NC(=O)C3CC3C(=O)O)s2)cc1C(=O)N1CCN(C(C)=O)CC1 (stereo not drawn)	
6.55		COc1cc(C)c(Sc2cnc(NC(=O)c3ccc(N(C)C)cc3)s2)cc1C(=O)N1CCN(C(C)=O)CC1	
5.66		CC(=O)N1CCN(C(=O)c2cc(Sc3cnc(Nc4ccccn4)s3)ccc2O)CC1	
4.66		CC(=O)N1CCN(C(=O)c2cccc(CSc3cnc(NC(=O)c4ccc(N(C)C)cc4)s3)c2)CC1	
6.15		CC(=O)N1CCN(C(=O)c2cc(CSc3cnc(NC(=O)c4ccc(CNC(C)C(C)(C)C)cc4)s3)cc(C)c2C)CC1 (stereo not drawn)	
6.16	> 0.3 nmol/min/mg	COc1cc(C)c(Sc2cnc(NC(=O)C3CC3)s2)cc1C(=O)N1CCN(C(C)=O)CC1	
< 5.00	< 0.1 nmol/min/mg	CN(CC(=O)O)C(=O)c1cc(Sc2cnc(Nc3cccc(Br)n3)s2)ccc1O	
< 4.30	< 0.1 nmol/min/mg	O=C(O)C1CCCN(C(=O)c2cc(Sc3cnc(Nc4cccc(Br)n4)s3)ccc2O)C1 (stereo not drawn)	
6.34		CC(=O)N1CCN(C(=O)c2cc(Sc3cnc(Nc4cc(C)cc(C)n4)s3)ccc2O)CC1	
6.64		COc1cc(C)c(Sc2cnc(Nc3cc(C)cc(C)n3)s2)cc1C(=O)N1CCN(C(C)=O)CC1	
6.38		COCc1ccc(C(=O)Nc2ncc(Sc3cc(C(=O)N4CCN(C(C)=O)CC4)c(OC)cc3C)s2)cc1	

Reference: ChEMBL document CHEMBL1138957, “Discovery and SAR of 2-amino-5-(thioaryl)thiazoles as potent and selective Itk inhibitors” (Bioorg Med Chem Lett, 2006)
